From the supplement of paper PMC10307832

How the values were obtained:
Assay in all cases: relative viability (nuclei count vs DMSO), 5 days (fraction); higher = more cells survive
[1] = compound: CCc1cnn2c(NCc3ccc[n+]([O-])c3)cc(N3CCCC[C@H]3CCO)nc12 [Dinaciclib] + CS(=O)(=O)CCNCc1ccc(-c2ccc3ncnc(Nc4ccc(OCc5cccc(F)c5)c(Cl)c4)c3c2)o1 [Lapatinib] (partner 2 µM)
Summary of the method: (§1)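 Dosing by pin tool came one day after lung cancer cell lines were seeded in 1536-well plates, using either one drug or a fixed anchor-drug dose plus five library-drug doses (not always all listed) in √10 steps. After 5 days, nuclei were counted on 4× images. Relative viability is treated-well nuclei count divided by vehicle-well nuclei count, and values are medians of duplicate plates.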

[2] = compound: CCc1cnn2c(NCc3ccc[n+]([O-])c3)cc(N3CCCC[C@H]3CCO)nc12 [Dinaciclib] + NC(=O)Nc1cc(-c2cccc(F)c2)sc1C(=O)N[C@H]1CCCNC1 [AZD7762] (partner 0.2 µM)
Summary of the method: as §1

[3] = compound: CCc1cnn2c(NCc3ccc[n+]([O-])c3)cc(N3CCCC[C@H]3CCO)nc12 [Dinaciclib] + Cc1nc(Nc2ncc(C(=O)Nc3c(C)cccc3Cl)s2)cc(N2CCN(CCO)CC2)n1 [Dasatinib] (partner 0.075 µM)
Summary of the method: as §1

[4] = compound: CCc1cnn2c(NCc3ccc[n+]([O-])c3)cc(N3CCCC[C@H]3CCO)nc12 [Dinaciclib] + Cc1nc(NC(=O)N2CCC[C@H]2C(N)=O)sc1-c1ccnc(C(C)(C)C(F)(F)F)c1 [Alpelisib] (partner 2 µM)
Summary of the method: as §1

[5] = compound: CCc1cnn2c(NCc3ccc[n+]([O-])c3)cc(N3CCCC[C@H]3CCO)nc12 [Dinaciclib] + N=C(N)NC(=N)NCCc1ccccc1 [Phenformin] (partner 250 µM)
Summary of the method: as §1

Row | Cell Line | relative viability ([1]; first compound 0.009487 µM) | relative viability ([1]; first compound 0.03 µM) | relative viability ([1]; first compound 0.09487 µM) | relative viability ([1]; first compound 0.3 µM) | relative viability ([2]; first compound 0.009487 µM) | relative viability ([2]; first compound 0.03 µM) | relative viability ([2]; first compound 0.09487 µM) | relative viability ([2]; first compound 0.3 µM) | relative viability ([3]; first compound 0.009487 µM) | relative viability ([3]; first compound 0.03 µM) | relative viability ([3]; first compound 0.09487 µM) | relative viability ([3]; first compound 0.3 µM) | relative viability ([4]; first compound 0.009487 µM) | relative viability ([4]; first compound 0.03 µM) | relative viability ([4]; first compound 0.09487 µM) | relative viability ([4]; first compound 0.3 µM) | relative viability ([5]; first compound 0.009487 µM) | relative viability ([5]; first compound 0.03 µM) | relative viability ([5]; first compound 0.09487 µM) | relative viability ([5]; first compound 0.3 µM)
1 | 201T | 1.14 | 0.743 | 0.361 | 0.245 | 0.79 | 0.844 | 0.252 | 0.228 | 0.621 | 0.428 | 0.265 | 0.245 | 1.11 | 0.829 | 0.288 | 0.284 | 0.418 | 0.415 | 0.257 | 0.238
2 | A-427 | 0.949 | 0.291 | 0.0989 | 0.0767 | 0.75 | 0.161 | 0.117 | 0.102 | 0.486 | 0.111 | 0.0662 | 0.0725 | 1.11 | 0.138 | 0.0763 | 0.067 | 0.328 | 0.094 | 0.0857 | 0.0889
3 | ABC-1 | 1.19 | 0.574 | 0.357 | 0.303 | 0.87 | 0.642 | 0.189 | 0.178 | 0.466 | 0.133 | 0.137 | 0.0934 | 0.726 | 0.342 | 0.194 | 0.172 | 0.209 | 0.157 | 0.13 | 0.132
4 | BEN | 0.731 | 0.343 | 0.166 | 0.186 | 0.894 | 0.566 | 0.217 | 0.287 | 0.362 | 0.435 | 0.157 | 0.153 | 1.24 | 0.517 | 0.207 | 0.236 | 0.235 | 0.217 | 0.174 | 0.209
5 | CAL-12T | 0.323 | 0.171 | 0.179 | 0.149 | 0.565 | 0.187 | 0.14 | 0.183 | 0.11 | 0.0662 | 0.082 | 0.0795 | 0.443 | 0.128 | 0.0835 | 0.115 | 0.188 | 0.103 | 0.107 | 0.097
6 | COR-L23 | 0.688 | 0.0875 | 0.0701 | 0.0804 | – | – | – | – | 0.349 | 0.0817 | 0.0588 | 0.0557 | 0.637 | 0.0835 | 0.0694 | 0.0603 | 0.296 | 0.0764 | 0.0763 | 0.069
7 | COR-L 105 | 0.327 | 0.292 | 0.283 | 0.299 | – | – | – | – | 0.25 | 0.201 | 0.191 | 0.187 | 0.575 | 0.35 | 0.234 | 0.187 | 0.384 | 0.217 | 0.208 | 0.201
8 | ChaGo-K-1 | – | – | – | – | 0.904 | 0.389 | 0.131 | 0.117 | 0.529 | 0.154 | 0.116 | 0.127 | – | – | – | – | 0.414 | 0.17 | 0.125 | 0.137
9 | EKVX | 0.229 | 0.118 | 0.118 | 0.116 | 0.756 | 0.436 | 0.127 | 0.101 | 0.548 | 0.415 | 0.159 | 0.223 | 0.862 | 0.449 | 0.11 | 0.122 | 0.239 | 0.218 | 0.162 | 0.091
10 | EMC-BAC-2 | 0.85 | 0.598 | 0.165 | 0.157 | 0.935 | 0.657 | 0.22 | 0.237 | 0.312 | 0.117 | 0.13 | 0.109 | 0.765 | 0.227 | 0.113 | 0.112 | 0.472 | 0.199 | 0.13 | 0.166
11 | EPLC-272H | 1 | 0.104 | 0.0545 | 0.051 | 0.444 | 0.0986 | 0.0404 | 0.0369 | 0.381 | 0.089 | 0.0366 | 0.0325 | 0.828 | 0.542 | 0.0754 | 0.0887 | 0.344 | 0.122 | 0.0306 | 0.0277
12 | H3255 | 0.378 | 0.233 | 0.123 | 0.214 | 1.04 | 0.62 | 0.209 | 0.208 | 0.289 | 0.313 | 0.271 | 0.195 | 0.716 | 0.352 | 0.15 | 0.141 | 0.333 | 0.305 | 0.315 | 0.28
13 | HARA | 0.604 | 0.0778 | 0.0593 | 0.0436 | 0.349 | 0.116 | 0.127 | 0.123 | 0.254 | 0.22 | 0.0491 | 0.0506 | 0.72 | 0.0726 | 0.0663 | 0.0442 | 0.518 | 0.129 | 0.0472 | 0.0313
14 | HCC-15 | 0.63 | 0.104 | 0.0985 | 0.0923 | 1.18 | 0.88 | 0.113 | 0.0634 | 0.424 | 0.086 | 0.0767 | 0.095 | 0.863 | 0.169 | 0.0978 | 0.0964 | 0.352 | 0.115 | 0.107 | 0.103
15 | HCC-44 | 0.921 | 0.144 | 0.134 | 0.135 | 0.999 | 1.05 | 0.351 | 0.327 | – | – | – | – | 0.677 | 0.095 | 0.133 | 0.118 | 0.138 | 0.105 | 0.0633 | 0.0778
16 | HCC-78 | 0.75 | 0.806 | 0.125 | 0.136 | 0.941 | 0.637 | 0.226 | 0.209 | 0.379 | 0.181 | 0.148 | 0.162 | 0.298 | 0.202 | 0.115 | 0.118 | 0.744 | 0.332 | 0.17 | 0.165
17 | HCC-366 | 0.557 | 0.0225 | 0.0184 | 0.0226 | 0.406 | 0.0244 | 0.0268 | 0.0232 | 0.597 | 0.14 | 0.0199 | 0.033 | 0.366 | 0.0443 | 0.0165 | 0.0153 | 0.593 | 0.137 | 0.03 | 0.0292
